# Laboratory results as given in US20130324541A1, “POTENTIATOR OF ANTITUMOR ACTIVITY OF CHEMOTHERAPEUTIC AGENT” (Ajinomoto Co., Inc., priority 2011, published 2013).
# Legend:
# [1] = tested on: human hepatic cancer cell line HAK4; assay: Annexin V apoptosis, combined use of 5FU and BCAA, HAK4 cells; type: cell-based; details: 72 hr, BCAA 2 mM, 5FU 2.5 μg/ml
# Procedure: Human hepatic cancer cell line HAK4 cells were plated at a concentration of 3000 cells/well in a plate, and cultured 30 under the following conditions for 72 hr: • LC 2.5% medium • BCAA (2 mM) • 5FU (2.5 μg/ml) • BCAA (2 mM)+5FU (2.5 μg/ml)
# (§1) After 72 hr, using ApoAlert Annexin V-FITC Apoptosis kit (Clontech), the cells were stained with annexin V and fixed, and apoptotic cells (%) were detected by Array Scan (Thermo Fisher).
# To be specific, the cells in the 96 well plate were rinsed with 1×Binding Buffer, 40 μl of 1×Binding Buffer containing annexin V (1 μl) was added to each well, and the cells were incubated in the dark at room temperature for 5-15 min. The cells were washed, and fixed with 2% formaldehyde. 100 μl of PBS containing Hoechst33258 solution was added, and the cells were incubated in the dark for 5 min, and apoptotic cells (%) were detected by Array Scan.
# HAK1B cells = assay: HAK1B subcutaneous transplant in nude mice, tumor weight and volume; type: in vivo, BALB/c nude mice; details: 5FU 250 μg/tumor into the tumor, 3(w/w)% BCAA mixed feed for 2 weeks, vs control group
# Procedure: HAK1B cells were subcutaneously transplanted to 7-week-old female BALB/c nude mice (purchased from Japan Charles River) at 7,000,000 cells/mouse. After 1 week, the mice were grouped based on the tumor area. 5FU 250 μg/tumor (vehicle 10% DMSO/DW) was administered into the tumor (see Cancer Research, 70(11), 4687-4697, 2010), as well as a 3(w/w) % BCAA mixed feed or a 3(w/w) % casein mixed feed was given for 2 weeks. That is, treatments of 4 groups are as described below: • group 1: vehicle+casein mixed feed (control group) • group 2: 5FU+casein mixed feed • group 3: vehicle+BCAA mixed feed • group 4: 5FU+BCAA mixed feed
# Using a vernier caliper, the tumor volume (longest Diameter×shortest diameter×height (mm^3)) was measured from the outer side of the tumor to monitor time-course changes in the tumor volume. On day 43, autopsy was performed, and the weight and volume of the tumor were measured.
# [2] = tested on: HCT116 cells (human colorectal cancer cell line); assay: Annexin V apoptosis, combined use of 5FU and BCAA, HCT116 cells; type: cell-based; details: 72 hr, BCAA 2 mM, 5FU 2 μg/ml
# Procedure: HCT116 cells (human colorectal cancer cell line) were plated at a concentration of 4000 cells/well in a plate, and cultured under the following conditions for 72 hr: • LC 2.5% medium • BCAA (2 mM) • 5FU (2 μg/ml) • BCAA (2 mM)+5FU (2 μg/ml)
# as §1
# [3] = tested on: MKN45 cells (human gastric cancer cell line); assay: WST-8 viable cell assay, 5FU and BCAA, MKN45 cells; type: cell-based; details: 72 hr, BCAA 2 mM or 4 mM, 5FU 0.05-1 μg/ml
# Procedure: MKN45 cells (human gastric cancer cell line) were plated in a 96 well plate at a concentration of 4000 cells/100 μl/well, and cultured under the following conditions for 72 hr: • LC medium (10% FBS) • LC medium +BCAA (2 mM or 4 mM) • LC medium +5FU (0.05 μg/ml, 0.1 μg/ml, 0.5 μg/ml or 1 μg/ml) • LC medium +BCAA (2 mM or 4 mM) +5FU (0.05 μg/ml, 0.1 μg/ml, 0.5 μg/ml or 1 μg/ml)
# After 72 hr, WST-8 reagent was added (10 μl/well) and, after color development for 1 hr, the absorbance of OD 450 nm was measured. The absorbance of each group was shown by a is relative value provided that the absorbance of a non-stimulation group was assumed to be 1000. WST-8 is reduced by intracellular dehydrogenase to produce water-soluble formazan. By directly measuring the absorbance of formazan at 450 nm, the number of viable cells can be easily measured. The cell number and the amount of produced formazan are in a linear proportional correlation.
# [4] = tested on: human breast cancer cell line MDA-MB231; assay: Growth of MDA-MB231 cells (cell number, Hoechst staining); type: cell-based; details: 5 days, 5-FU 0.25 μg/ml, BCAA 4 mM
# Procedure: MDA-MB231 cells were suspended in RPMI-10% (RPMI medium containing 10% FBS), and plated in a plate at 2000 cells/well. The next day, the medium was exchanged to those shown below, and the cells were further cultured for 5 days. • group 1: RPMI-10% • group 2: RPMI-10% containing BCAA (4 mM) • group 3: RPMI-10% containing 5-FU (0.25 μg/m1) • group 4: RPMI-10% containing 5-FU (0.25 μg/ml) +BCAA (4 mM)
# After 5 days, cellular nucleus was stained with Hoechst reagent, and the cell number was counted. In groups 1 and 2, cells were stained with anti-CD44 antibody, and the ratio of CD44 positive cells was analyzed by Array Scan using fluorescence microscopic quantification apparatus (Thermo Fisher).
structure (smiles),measurement,setting,value
"O=c1[nH]cc(F)c(=O)[nH]1 [5FU, 5-fluorouracil]",apoptotic cells (Annexin V positive cells),[1],increased
same,tumor volume,HAK1B cells,significantly decreased
same,tumor weight,HAK1B cells,significantly decreased
same,apoptotic cells (Annexin V positive cells),[2],increased
same,"number of viable cells (WST-8, OD 450 nm)",[3],decreased
same,number of viable cells (cell number),[4],decreased
